According to PubChem BioAssay (NCI):
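In this assay, cells in 96-well plates receive the compound at five concentrations for 48 hours. Endpoints are linearly interpolated between the surrounding concentrations. TGI is the concentration that stops growth completely.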

Legend:
Assay in all cases: NCI-60 cell line screen, 48 h
[1] = test system: KM20L2 colon
[2] = test system: UACC-257 melanoma
[3] = test system: MALME-3M melanoma
[4] = test system: SR leukemia
[5] = test system: DMS 114 small cell lung
[6] = test system: UACC-62 melanoma
[7] = test system: 786-0 renal
[8] = test system: LXFL 529 NSCLC
[9] = test system: SK-OV-3 ovarian
[10] = test system: SK-MEL-2 melanoma
[11] = test system: HCC-2998 colon
[12] = test system: MCF7 breast

Row | SMILES | TGI [1] [µM] | TGI [2] [µM] | TGI [3] [µM] | TGI [4] [µM] | TGI [5] [µM] | TGI [6] [µM] | TGI [7] [µM] | TGI [8] [µM] | TGI [9] [µM] | TGI [10] [µM] | TGI [11] [µM] | TGI [12] [µM]
1 | O=C1Nc2cccc3ncn(c23)C2=C1CCCC2 | > 100 | > 100 | > 100 | > 100 | > 100 | > 100 | > 100 | > 100 | > 100 | > 100 | > 100 | –
2 | O=C1CC2CC=C[C@H]3c4cc5c(cc4C(=O)N1C23)OCO5 (some centres not stated) | > 50 | > 50 | > 50 | – | > 50 | > 50 | > 50 | > 50 | > 50 | – | > 50 | –
3 | O=C(O)C(CS)NCc1c2ccccc2[n+]([O-])c2ccccc12 (configuration not stated) | > 100 | > 100 | > 100 | – | 68.6 | > 100 | > 100 | 84.3 | > 100 | > 100 | > 100 | –
4 | CSc1c(C(=O)Nc2ccc(C)cc2)c(N)nn1-c1ccccc1 | – | > 100 | 75.7 | > 100 | – | > 100 | 45 | – | > 100 | > 100 | > 100 | > 100
5 | N#Cc1ncn(-c2ccccc2)c1N | – | > 100 | > 100 | > 100 | – | > 100 | > 100 | – | > 100 | > 100 | > 100 | > 100
6 | Cc1cn(CC2=NCCN2)c(=O)[nH]c1=O | – | > 100 | > 100 | > 100 | – | > 100 | > 100 | – | > 100 | > 100 | > 100 | > 100
7 | CSCCC(NCc1c(O)ccc2ccc(=O)oc12)C(=O)O (configuration not stated) | – | > 100 | > 100 | > 100 | – | > 100 | > 100 | – | > 100 | > 100 | > 100 | > 100
8 | CSC(SC)=C1C(=O)NN=C1C | – | > 100 | > 100 | > 100 | – | > 100 | > 100 | – | > 100 | > 100 | > 100 | > 100
9 | CC(C)(C)c1cc(C(=O)/C=C/c2ccc(O)c(O)c2O)cc(C(C)(C)C)c1O | – | 10.6 | > 67.5 | 4.67 | – | 18.8 | 28.8 | – | 53.7 | 19.2 | 11.7 | 27.2
10 | O=[N+]([O-])c1ccc(Cl)cc1-n1nc(-c2ccccc2)cc1-c1ccccc1 | – | > 100 | > 100 | > 100 | – | > 100 | > 100 | – | > 100 | > 100 | > 100 | > 100
11 | Cc1ccc(/C=C2\N=C(N3CCCCC3)NC2=O)cc1 | – | > 100 | > 100 | > 100 | – | > 100 | > 100 | – | > 100 | > 100 | > 100 | > 100
12 | O=C1C=C(N2CCCC2)C=C(N2CCCC2)C1 | > 100 | > 100 | > 100 | > 100 | > 100 | > 100 | > 100 | > 100 | > 100 | > 100 | > 100 | –
13 | CC(=O)OC1/C(=C/c2ccc([N+](=O)[O-])cc2)C[C@H]2[C@@H]3CC=C4C[C@@H](OC(C)=O)CC[C@]4(C)[C@H]3CC[C@]12C (some centres not stated) | – | > 100 | > 100 | > 20.7 | – | > 100 | > 100 | – | > 100 | > 100 | > 100 | > 100
14 | CC(=O)Nc1ccc(Nc2cc(=O)n(C)c(=O)[nH]2)cc1 | – | > 100 | > 100 | > 100 | – | > 100 | > 100 | – | > 100 | > 100 | > 100 | > 100
15 | COc1cc2c(cc1OC)C1Cc3ccccc3CCN1CC2 (configuration not stated) | – | > 100 | > 100 | > 100 | – | > 100 | > 100 | – | > 100 | > 100 | > 100 | > 100
16 | O=C(O)c1cccc(S(=O)(=O)NN2C(=O)CSC2c2ccccc2)c1 (configuration not stated) | – | > 100 | > 100 | > 100 | – | > 100 | > 100 | – | > 100 | > 100 | > 100 | > 100
17 | ClC(Cl)(Cl)C1CCOC1n1nc2ccccc2n1 (configuration not stated) | – | > 100 | > 100 | > 100 | – | > 100 | > 100 | – | > 100 | > 100 | > 100 | > 100
18 | CCOC(=O)C1(Cc2ccccc2)Cc2cc3c(cc2C1)CCC3 | – | > 100 | > 100 | 65.1 | – | > 100 | > 100 | – | 90.9 | 34.3 | 52.8 | 53
19 | Oc1c(C2=NNC(c3cccs3)C2)ccc2ccccc12 (configuration not stated) | – | > 100 | > 100 | 29.3 | – | 30.3 | > 100 | – | > 100 | > 100 | 34.2 | 51.7
20 | CCC1(OC(=O)CN2CCN(CCO)CC2)C(=O)OCc2c1cc1n(c2=O)Cc2cc3ccccc3nc2-1 (configuration not stated) | 7.46 | 8.05 | 12 | 0.305 | 16.8 | 1.05 | 2.53 | 21.4 | 14.7 | 9.52 | 6.29 | 2.18
21 | N#Cc1cccc(C2ON=C(c3ccc([N+](=O)[O-])cc3)N2C23CC4CC(CC(C4)C2)C3)c1 (configuration not stated) | – | > 100 | > 100 | > 100 | – | > 100 | > 100 | – | > 100 | > 100 | > 100 | > 100
22 | CCOC(=O)N1CCN(Cc2cc(=O)n3cc(C)ccc3n2)CC1 | – | > 100 | > 100 | > 100 | – | > 100 | > 100 | – | > 100 | > 100 | > 100 | > 100
23 | O=C(O)CCC(NC(=O)c1ccc(Nc2nc3ccccc3nc2C(=O)O)cc1)C(=O)O (configuration not stated) | – | > 100 | > 100 | > 100 | – | > 100 | > 100 | – | > 100 | > 100 | > 100 | > 100
24 | N=C(/C=C/c1ccc(-c2cn3cc(/C=C/C(=N)N4CCCC4)ccc3n2)cc1)N1CCCC1 | – | > 100 | > 100 | > 100 | – | > 100 | > 100 | – | > 100 | > 100 | > 100 | > 100
25 | CCOc1ccc(N2C(=O)C3c4[nH]c5ccccc5c4C4CCC(C(C)(C)C)CC4C3C2=O)cc1 (configuration not stated) | > 100 | > 100 | > 100 | > 100 | > 100 | > 100 | > 100 | > 100 | > 100 | – | 79.4 | –
26 | CCOC(=O)c1cccc(NC(=O)CBr)c1 | – | 3.86 | 4.22 | 0.521 | – | 2.92 | 0.494 | – | 3.43 | 3.2 | 5.28 | 3.3
27 | O=C(c1ccc(Cl)cc1Cl)N(Cc1cccnc1)C(=S)N(Cc1cccnc1)C(=O)c1ccc(Cl)cc1Cl | – | 23.5 | 36.9 | > 100 | – | 23.8 | 5.34 | – | 37.1 | 13.7 | 8.97 | 12.3
